System: cholesterol in blood
Assay: Reduction of blood cholesterol in rats fed a 1% cholesterol / 0.25% sodium cholate diet
Format: in vivo, male rats
Conditions: 3 days, control (cholesterol-administered) group = 0, normal group = 100, * 5%, ** 1% significance
Protocol: A completely synthetic diet containing 1% of cholesterol, 0.25% of sodium cholate and 0.0003%, 0.003%, and 0.03% of the test compound is given to a group of 6 male rats having a body weight of about 50 g consecutively for 3 days, and the rats are fasted overnight. Then, the rats are decapitated and blood is collected to determine the cholesterol concentration in blood. The concentration of cholesterol in blood is measured with Technicon Autoanalyzer(Technicon Laboratory: Method File N-24a) Obtained results are shown in Table 1.
Each value shown in the Table is a relative value determined based on the supposition that the value of the control group (the cholesterol-administered group) is 0 and the value of the normal group (the non-cholesterol-administered group) is 100.

Row | Molecule | % Inhibition (cholesterol in blood) (Dose in Diet 0.003%) [%] | % Inhibition (cholesterol in blood) (Dose in Diet 0.03%) [%] | % Inhibition (cholesterol in blood) (Dose in Diet 0.0003%) [%]
1 | CC(C)C1CCC2=C(CCC3C(C)(C(=O)NCc4ccc(Cl)cc4)CCCC23C)C1 (centres unmarked) [N-(4-chlorobenzyl)-Δ^8-dihydroabietamide] | 9 | 30 | –
2 | N-(m-bromophenyl)-dihydroabietamide | 23 | 60 | 7
3 | Cc1cccc(C)c1NC(=O)C1(C)CCCC2(C)C3=C(CCC12)CC(C(C)C)CC3 (centres unmarked) [N-(2,6-dimethylphenyl)-Δ^8-dihydroabietamide] | 76 | 102 | 33

Source: patent US4009206A, “N-(substituted phenyl and benzyl)abietamides” (priority 1974, dated 1977)
